Assay results taken from patent US20120015906A1, “USES OF BORTEZOMIB IN PREDICTING SURVIVAL IN MULTIPLE MYELOMA PATIENTS” (priority 2009, published 2012).
Entries after “also recorded” stand apart in the source; their conditions may differ.

Assays:
proteasome genes [1] = conditions: Burington et al., 2009; cited from earlier work
proteasome genes [2] = assay: Proteasome gene expression changes after short-term exposure (test-dosing) to bortezomib, dexamethasone, thalidomide, melphalan; assay type: in vivo, human; conditions: for proteasome gene expression change after short-term exposure: test-dosing in myeloma patients
Text: In earlier studies, pharmacogenomics was used to identify genes altered by short-term exposure of therapy-naïve cases to thalidomide and dexamethasone. Little to no overlap was found in the genes altered by these agents with those altered by bortezomib.

Structure (SMILES)	hyperactivation of proteasome genes after short-term drug (proteasome genes [1])	changes for some proteasome genes (e.g. PSMB3 and PSMD14) compared to the changes after bortezomib (proteasome genes [2]; FIG. 10, short-term exposure)	change of PSMB2 and PSMD14 compared to the changes after bortezomib (proteasome genes [2]; melphalan test-dosing, Total Therapy 4)	proteasome gene expression change after short-term exposure (proteasome genes [2])
Nc1cccc2c1CN(C1CCC(=O)NC1=O)C2=O (stereo not drawn) [lenalidomide]	not associated with hyperactivation of proteasome genes	–	–	–
N[C@@H](Cc1ccc(N(CCCl)CCCl)cc1)C(=O)O [melphalan]	–	reversed	inversely changed	most proteasome genes did not change
O=C1CCC(N2C(=O)c3ccccc3C2=O)C(=O)N1 (stereo not drawn) [thalidomide]	not associated with hyperactivation of proteasome genes	–	–	complete lack of activation; also recorded: did not change
